What was measured:
Assay in all cases: relative viability (nuclei count vs DMSO), 5 days (fraction); higher = more cells survive
R406 + Phenformin = compound: COc1cc(Nc2ncc(F)c(Nc3ccc4c(n3)NC(=O)C(C)(C)O4)n2)cc(OC)c1OC [R406] + N=C(N)NC(=N)NCCc1ccccc1 [Phenformin] (partner 250 µM)
In short: (§1)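 A single step with final 0.05% Triton X-100, 1% formaldehyde and 1 ug/ml Hoechst fixed the cells and stained nuclei 5 days after treatment. Lung cancer cell lines in 1536-well plates had been treated by pin tool the day after seeding with one drug alone or a fixed anchor-drug dose plus five library-drug doses (not always all listed) in √10 steps, and nuclei were counted on 4× images. Relative viability is the ratio of nuclei in treated wells to nuclei in vehicle wells, taken as the median of duplicate plates.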

Daporinad + Lapatinib = compound: O=C(/C=C/c1cccnc1)NCCCCC1CCN(C(=O)c2ccccc2)CC1 [Daporinad] + CS(=O)(=O)CCNCc1ccc(-c2ccc3ncnc(Nc4ccc(OCc5cccc(F)c5)c(Cl)c4)c3c2)o1 [Lapatinib] (partner 2 µM)
In short: as §1

Daporinad + Bortezomib = compound: O=C(/C=C/c1cccnc1)NCCCCC1CCN(C(=O)c2ccccc2)CC1 [Daporinad] + CC(C)C[C@H](NC(=O)[C@H](Cc1ccccc1)NC(=O)c1cnccn1)B(O)O [Bortezomib] (partner 0.002 µM)
In short: as §1

R406 + Tozasertib = compound: COc1cc(Nc2ncc(F)c(Nc3ccc4c(n3)NC(=O)C(C)(C)O4)n2)cc(OC)c1OC [R406] + Cc1cc(Nc2cc(N3CCN(C)CC3)nc(Sc3ccc(NC(=O)C4CC4)cc3)n2)n[nH]1 [Tozasertib] (partner 0.1 µM)
In short: as §1

Cell Line | relative viability (R406 + Phenformin; first compound 0.08 µM) | relative viability (R406 + Phenformin; first compound 0.253 µM) | relative viability (R406 + Phenformin; first compound 0.8 µM) | relative viability (R406 + Phenformin; first compound 2.53 µM) | relative viability (R406 + Phenformin; first compound 8 µM) | relative viability (Daporinad + Lapatinib; first compound 0.0005 µM) | relative viability (Daporinad + Lapatinib; first compound 0.001581 µM) | relative viability (Daporinad + Lapatinib; first compound 0.005 µM) | relative viability (Daporinad + Lapatinib; first compound 0.01581 µM) | relative viability (Daporinad + Bortezomib; first compound 0.0005 µM) | relative viability (Daporinad + Bortezomib; first compound 0.001581 µM) | relative viability (Daporinad + Bortezomib; first compound 0.005 µM) | relative viability (Daporinad + Bortezomib; first compound 0.01581 µM) | relative viability (R406 + Tozasertib; first compound 0.08 µM) | relative viability (R406 + Tozasertib; first compound 0.253 µM) | relative viability (R406 + Tozasertib; first compound 0.8 µM) | relative viability (R406 + Tozasertib; first compound 2.53 µM) | relative viability (R406 + Tozasertib; first compound 8 µM)
NCI-H322M | 0.709 | 0.721 | 0.853 | 0.582 | 0.275 | 0.648 | 0.671 | 0.584 | 0.597 | 1.24 | 1.37 | 1.04 | 0.625 | 0.496 | 0.465 | 0.489 | 0.343 | 0.283
NCI-H460 | 0.552 | 0.682 | 0.609 | 0.105 | 0.102 | 0.797 | 1.15 | 1.08 | 1.04 | 1.1 | 1.17 | 1.05 | 1.05 | 0.493 | 0.486 | 0.481 | 0.344 | 0.264
NCI-H520 | 0.625 | 0.785 | 0.641 | 0.28 | 0.188 | 0.976 | 0.54 | 0.224 | 0.149 | 0.624 | 0.686 | 0.223 | 0.151 | 0.499 | 0.469 | 0.45 | 0.347 | 0.219
NCI-H596 | 0.672 | 0.845 | 0.967 | 0.703 | 0.281 | 0.941 | 1.22 | 1.08 | 0.544 | 1.05 | 1.02 | 0.998 | 0.788 | 0.868 | 1.01 | 1.05 | 0.513 | 0.267
NCI-H647 | 0.423 | 0.561 | 0.78 | 0.432 | 0.12 | 1.13 | 1.34 | 1.19 | 1.01 | 1.03 | 1.04 | 1.14 | 1.01 | 0.261 | 0.327 | 0.26 | 0.21 | 0.173
NCI-H650 | 0.416 | 0.498 | 0.463 | 0.295 | 0.337 | 0.889 | 1.25 | 1.19 | 1.31 | 0.622 | 0.817 | 0.669 | 0.833 | 0.701 | 0.885 | 0.699 | 0.614 | 0.599
NCI-H661 | 0.288 | 0.263 | 0.267 | 0.273 | 0.226 | 0.374 | 0.443 | 0.403 | 0.402 | 0.941 | 0.867 | 0.659 | 0.477 | 0.337 | 0.322 | 0.32 | 0.348 | 0.324
NCI-H727 | 0.529 | 0.644 | 0.622 | – | 0.423 | 0.968 | 0.831 | 0.853 | 0.76 | 0.813 | 0.798 | 0.838 | 0.858 | 0.586 | 0.566 | 0.694 | 0.594 | 0.433
NCI-H838 | 0.569 | 0.634 | 0.727 | 0.188 | 0.132 | 0.998 | 1.31 | 0.966 | 0.5 | 0.795 | 1.2 | 0.828 | 0.443 | 0.247 | 0.327 | 0.248 | 0.254 | 0.217

Reference: the supplement of paper PMC10307832
